Results from patent US20250195553A1, “Use of Genipin-1-B-D-Gentiobioside in Preparation of Drug” (Guizhou Bailing Group Pharmaceutical Co., Ltd., priority 2023, published 2025).
Read-outs that look alike come from different tables or passages of the source.

Experiments:
[1] = test system: Mycoplasma Pneumoniae (MP); test: Inflammatory factors in lung tissue of MP-infected mice (ELISA); type: in vivo, BALB/C mice; details: 4 days
Procedure: […] Each group consisted of 10 mice, with an equal number of males and females. Except for the normal control group, all mice were lightly anesthetized with isoflurane and infected intranasally with Mycoplasma Pneumoniae (50 μl per mouse) for three consecutive days. On the day of infection, each treatment group received nebulized medication once daily for four consecutive days, while the normal control group and model control group received nebulized saline under the same conditions. On the fifth day, the mice were weighed, sacrificed by cervical dislocation, and their lung tissues were dissected, weighed, and used to calculate the lung index and lung index inhibition rate; measure the levels of inflammatory factors in the lung tissue; measure the serum CRP levels; and conduct pathological examinations of the lung tissue. The results were statistically analyzed using the t-test for intergroup comparisons.
(1) Sample Collection and Storage: Tissue Homogenate Samples: After weighing, lung tissues were collected from 8 mice in each group and stored at −80° C. The MP Fastprep-24 5G Rapid Sample Preparation System was used to homogenize the tissues, followed by centrifugation at […] and 3000 r/min for 10 minutes using a low-temperature high-speed centrifuge. The supernatant was then aspirated, aliquoted, and stored at −80° C. for future use, avoiding repeated freeze-thaw cycles.
(2) The microplate, which had been equilibrated to room temperature, was removed from the sealed bag. Different concentrations of standards were added to the corresponding wells, with 50 μL per well. For experimental samples, 10 μL of sample was added to each well, followed by 40 μL of diluent. Except for the blank wells, 100 μL of HRP (Horseradish Peroxidase) was added to each well. The reaction wells were sealed with sealing tape and incubated at 37° C. for 1 hour. The plate was then washed with wash buffer four times. After the final wash, the plate was inverted and all residual liquid was patted dry on absorbent paper. 50 μL of both Substrate A and Substrate B were added to each well. The reaction wells were then sealed with sealing tape and incubated at 37° C. for 15 minutes. After that, 50 μL of stop solution was added to each well, and the absorbance at 450 nm was measured using a microplate reader within 15 minutes. The results were then calculated.

[2] = test system: Human Coronavirus OC43 (HCoV-OC43); type: in vivo; details: 4 days
[3] = test system: Mycoplasma Pneumoniae (MP); test: Mycoplasma pneumoniae-infected mouse pneumonia model: lung index; type: in vivo, BALB/C mice; parameters: First Batch Inhibition Rate: unit not given here; details: 4 days
[4] = test system: Human Coronavirus OC43 (HCoV-OC43); type: in vivo; details: OC43
[5] = test system: Human Coronavirus 229E (HCoV-229E); type: in vivo; details: 4 days
[6] = test system: Lipopolysaccharide (LPS)-induced pneumonia model in mice; test: Inflammatory factors in lung tissue of LPS-induced pneumonia mice (ELISA); type: in vivo, ICR mice; details: i.v.
Procedure: Sixty healthy mice, weighing 18˜20 g, half male and half female, were selected and randomly grouped after stratification by weight; they were divided into a normal control group, a model control group, three Genipin-1-β-D-gentiobioside dose groups (150 mg/kg/d, 75 mg/kg/d, 37.5 mg/kg/d), and a positive control drug Sivelestat Sodium 50 mg/kg/d group, with 10 mice in each group, half male and half female. After grouping, each treatment group was administered intravenously at 20 ml/kg once daily for 2 consecutive days, while the normal control group and model control group were injected with physiological saline. One hour after the second dose, except for the normal control group, the other groups were lightly anesthetized with isoflurane, and a 20 mg/ml LPS physiological saline solution was administered intranasally to the mice at 0.05 ml/mouse to induce the pneumonia model. Six hours after infection, the animals were sacrificed, dissected, and their lungs were removed and weighed to calculate the lung index (lung index=lung weight/body weight×100%).
(1) Sample Collection and Storage: Tissue homogenate samples: The lung tissues of mice were collected and weighed, including those from mice numbered 1, 2, 3, 6, 7, and 8 in each group. The tissues were stored at […] An ultrasonic cell disruptor was used to homogenize the tissues, followed by centrifugation at […] and 1000 r/min for 10 minutes using a low-temperature high-speed centrifuge. The supernatant was then collected, aliquoted, and stored at −80° C. for future use, avoiding repeated freeze-thaw cycles.
(2) The microwell plate, which had been equilibrated to room temperature, was removed from the sealed bag. Different concentrations of standards, experimental samples, or quality control samples were added to the corresponding wells, with 100 μL per well. The reaction wells were sealed with sealing tape and incubated at room temperature for 2 hours. The plate was then washed with wash buffer, repeating the operation four times. After the final wash, the plate was inverted and all residual liquid was patted dry on absorbent paper. Next, 100 μL of enzyme-labeled detection antibody was added to each microwell. The reaction wells were sealed again with sealing tape and incubated at room temperature for another 2 hours. The washing step was repeated as described above. Then, 100 μL of substrate solution was added to each microwell and incubated at room temperature for 30 minutes, protected from light. Within 30 minutes after adding 100 μL of stop solution to each microwell, the absorbance at 450 nm was measured using a microplate reader. The results were then calculated.

For `COC(=O)C1=CO[C@@H](O[C@@H]2O[C@H](CO[C@@H]3O[C@H](CO)[C@@H](O)[C@H](O)[C@H]3O)[C@@H](O)[C@H](O)[C@H]2O)[C@@H]2C(CO)=CC[C@H]12` [Genipin-1-β-D-gentiobioside], the “Inflammatory Factor Levels in Lung Tissue IL-1β” value ([1]; 37.5 mg/ml inhalation) was 147.59 ± 41.87 pg/mL, the “Inflammatory Factor Levels in Lung Tissue IL-6” value ([1]; 37.5 mg/ml inhalation) was 150.92 ± 7.65 pg/mL and the “Inflammatory Factor Levels in Lung Tissue TNF-α” value ([1]; 37.5 mg/ml inhalation) was 248.53 ± 93.97 pg/mL. For the same molecule, the “Inflammatory Factor Levels in Lung Tissue IL-1β” value ([1]; 75 mg/ml inhalation) was 148.31 ± 10.97 pg/mL, the “Inflammatory Factor Levels in Lung Tissue IL-6” value ([1]; 75 mg/ml inhalation) was 163.92 ± 8.54 pg/mL and the “Inflammatory Factor Levels in Lung Tissue TNF-α” value ([1]; 75 mg/ml inhalation) was 312.79 ± 81.52 pg/mL. For the same molecule, the “Inhibition Rate (lung index)” value ([2]; 9.375 mg/ml inhalation 25 min) was 49.42%, the “Lung Index” value ([2]; 9.375 mg/ml inhalation 25 min) was 0.79 ± 0.09 g lung weight × 100 g/body weight and the “Inhibition Rate (lung index)” value ([2]; 18.75 mg/ml inhalation 25 min) was 75.73%. For the same molecule, the “Lung Index” value ([2]; 18.75 mg/ml inhalation 25 min) was 0.76 ± 0.04 g lung weight × 100 g/body weight, the “Inhibition Rate (lung index)” value ([2]; 37.5 mg/ml inhalation 25 min) was 90.30% and the “Lung Index” value ([2]; 37.5 mg/ml inhalation 25 min) was 0.74 ± 0.08 g lung weight × 100 g/body weight. The “Inhibition Rate (lung index)” value ([2]; 75 mg/ml inhalation 25 min) was 102.88%, the “Lung Index” value ([2]; 75 mg/ml inhalation 25 min) was 0.72 ± 0.05 g lung weight × 100 g/body weight and the “First Batch Inhibition Rate” value ([3]; 37.5 mg/ml inhalation 15 min) was 73.01. For the same molecule, the “First Batch Lung Index” value ([3]; 37.5 mg/ml inhalation 15 min) was 0.76 ± 0.09, the “Second Batch Inhibition Rate” value ([3]; 37.5 mg/ml inhalation 15 min) was 56.34 and the “Second Batch Lung Index” value ([3]; 37.5 mg/ml inhalation 15 min) was 0.68 ± 0.08. For the same molecule, the “First Batch Inhibition Rate” value ([3]; 75 mg/ml inhalation 15 min) was 93.06, the “First Batch Lung Index” value ([3]; 75 mg/ml inhalation 15 min) was 0.72 ± 0.05 and the “Second Batch Inhibition Rate” value ([3]; 75 mg/ml inhalation 15 min) was 64.09. For the same molecule, the “Second Batch Lung Index” value ([3]; 75 mg/ml inhalation 15 min) was 0.67 ± 0.07, the “Inhibition Rate (lung index)” value ([4]; 37.5 mg/kg/d i.v. 4 days) was 41.59% and the “Lung Index” value ([4]; 37.5 mg/kg/d i.v. 4 days) was 0.80 ± 0.08 g lung weight × 100 g/body weight. The “Inhibition Rate (lung index)” value ([4]; 75 mg/kg/d i.v. 4 days) was 42.34%, the “Lung Index” value ([4]; 75 mg/kg/d i.v. 4 days) was 0.80 ± 0.05 g lung weight × 100 g/body weight and the “Inhibition Rate (lung index)” value ([4]; 150 mg/kg/d i.v. 4 days) was 39.93%. The “Lung Index” value ([4]; 150 mg/kg/d i.v. 4 days) was 0.80 ± 0.07 g lung weight × 100 g/body weight, the “Inhibition Rate (lung index)” value ([5]; 9.375 mg/ml inhalation 25 min) was 65.98% and the “Lung Index” value ([5]; 9.375 mg/ml inhalation 25 min) was 0.77 ± 0.08 g lung weight × 100 g/body weight. For the same molecule, the “Inhibition Rate (lung index)” value ([5]; 18.75 mg/ml inhalation 25 min) was 65.59%, the “Lung Index” value ([5]; 18.75 mg/ml inhalation 25 min) was 0.77 ± 0.08 g lung weight × 100 g/body weight and the “Inhibition Rate (lung index)” value ([5]; 37.5 mg/ml inhalation 25 min) was 64.22%. For the same molecule, the “Lung Index” value ([5]; 37.5 mg/ml inhalation 25 min) was 0.77 ± 0.05 g lung weight × 100 g/body weight, the “Inhibition Rate (lung index)” value ([5]; 75 mg/ml inhalation 25 min) was 109.19% and the “Lung Index” value ([5]; 75 mg/ml inhalation 25 min) was 0.71 ± 0.05 g lung weight × 100 g/body weight. The “Inflammatory Factor Levels in Lung Tissue IL-6” value ([6]; dosage 37.5 (mg/ml)) was 16.53 ± 1.91 pg/mL, the “Inflammatory Factor Levels in Lung Tissue IL-10” value ([6]; dosage 37.5 (mg/ml)) was 39.00 ± 8.37 pg/mL and the “Inflammatory Factor Levels in Lung Tissue TNF-α” value ([6]; dosage 37.5 (mg/ml)) was 106.13 ± 15.70 pg/mL. The “Inflammatory Factor Levels in Lung Tissue IL-6” value ([6]; dosage 75 (mg/ml)) was 17.72 ± 2.15 pg/mL, the “Inflammatory Factor Levels in Lung Tissue IL-10” value ([6]; dosage 75 (mg/ml)) was 35.75 ± 6.74 pg/mL and the “Inflammatory Factor Levels in Lung Tissue TNF-α” value ([6]; dosage 75 (mg/ml)) was 119.71 ± 19.76 pg/mL. The “Inflammatory Factor Levels in Lung Tissue IL-6” value ([6]; dosage 150 (mg/ml)) was 16.63 ± 2.19 pg/mL, the “Inflammatory Factor Levels in Lung Tissue IL-10” value ([6]; dosage 150 (mg/ml)) was 36.00 ± 5.14 pg/mL and the “Inflammatory Factor Levels in Lung Tissue TNF-α” value ([6]; dosage 150 (mg/ml)) was 100.25 ± 12.41 pg/mL.
